In patent publication US8815882B2, “Pyrazole aminopyrimidine derivatives as LRRK2 modulators” (Genentech, Inc., priority 2010, dated 2014):

Target: T1, LRRK2 (Homo sapiens, UniProt Q5S007, G2019S)
T1 construct: purchased Invitrogen PV4882 (lot 567054A)
Assay: In Vitro LRRK2 Assay (LabChip 3000, fluorescently-labeled peptide substrate, ATP)
Type: biochemical
Conditions: read-out: LRRK2 Ki (KI), Table 8
How it was run: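 Read-out was LabChip capillary electrophoresis, resolving phospho- from non-phospho-peptide by fluorescence intensity. The kinase reaction combined enzyme, ATP, test compound and labeled peptide (4 μM working dilution) for 2 h in darkness before stop solution. Values were reported as Ki, from a tight-binding model with Et, S and Km, or as IC50 or percent inhibition.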

T1 sequence (Q5S007 whole entry G2019S): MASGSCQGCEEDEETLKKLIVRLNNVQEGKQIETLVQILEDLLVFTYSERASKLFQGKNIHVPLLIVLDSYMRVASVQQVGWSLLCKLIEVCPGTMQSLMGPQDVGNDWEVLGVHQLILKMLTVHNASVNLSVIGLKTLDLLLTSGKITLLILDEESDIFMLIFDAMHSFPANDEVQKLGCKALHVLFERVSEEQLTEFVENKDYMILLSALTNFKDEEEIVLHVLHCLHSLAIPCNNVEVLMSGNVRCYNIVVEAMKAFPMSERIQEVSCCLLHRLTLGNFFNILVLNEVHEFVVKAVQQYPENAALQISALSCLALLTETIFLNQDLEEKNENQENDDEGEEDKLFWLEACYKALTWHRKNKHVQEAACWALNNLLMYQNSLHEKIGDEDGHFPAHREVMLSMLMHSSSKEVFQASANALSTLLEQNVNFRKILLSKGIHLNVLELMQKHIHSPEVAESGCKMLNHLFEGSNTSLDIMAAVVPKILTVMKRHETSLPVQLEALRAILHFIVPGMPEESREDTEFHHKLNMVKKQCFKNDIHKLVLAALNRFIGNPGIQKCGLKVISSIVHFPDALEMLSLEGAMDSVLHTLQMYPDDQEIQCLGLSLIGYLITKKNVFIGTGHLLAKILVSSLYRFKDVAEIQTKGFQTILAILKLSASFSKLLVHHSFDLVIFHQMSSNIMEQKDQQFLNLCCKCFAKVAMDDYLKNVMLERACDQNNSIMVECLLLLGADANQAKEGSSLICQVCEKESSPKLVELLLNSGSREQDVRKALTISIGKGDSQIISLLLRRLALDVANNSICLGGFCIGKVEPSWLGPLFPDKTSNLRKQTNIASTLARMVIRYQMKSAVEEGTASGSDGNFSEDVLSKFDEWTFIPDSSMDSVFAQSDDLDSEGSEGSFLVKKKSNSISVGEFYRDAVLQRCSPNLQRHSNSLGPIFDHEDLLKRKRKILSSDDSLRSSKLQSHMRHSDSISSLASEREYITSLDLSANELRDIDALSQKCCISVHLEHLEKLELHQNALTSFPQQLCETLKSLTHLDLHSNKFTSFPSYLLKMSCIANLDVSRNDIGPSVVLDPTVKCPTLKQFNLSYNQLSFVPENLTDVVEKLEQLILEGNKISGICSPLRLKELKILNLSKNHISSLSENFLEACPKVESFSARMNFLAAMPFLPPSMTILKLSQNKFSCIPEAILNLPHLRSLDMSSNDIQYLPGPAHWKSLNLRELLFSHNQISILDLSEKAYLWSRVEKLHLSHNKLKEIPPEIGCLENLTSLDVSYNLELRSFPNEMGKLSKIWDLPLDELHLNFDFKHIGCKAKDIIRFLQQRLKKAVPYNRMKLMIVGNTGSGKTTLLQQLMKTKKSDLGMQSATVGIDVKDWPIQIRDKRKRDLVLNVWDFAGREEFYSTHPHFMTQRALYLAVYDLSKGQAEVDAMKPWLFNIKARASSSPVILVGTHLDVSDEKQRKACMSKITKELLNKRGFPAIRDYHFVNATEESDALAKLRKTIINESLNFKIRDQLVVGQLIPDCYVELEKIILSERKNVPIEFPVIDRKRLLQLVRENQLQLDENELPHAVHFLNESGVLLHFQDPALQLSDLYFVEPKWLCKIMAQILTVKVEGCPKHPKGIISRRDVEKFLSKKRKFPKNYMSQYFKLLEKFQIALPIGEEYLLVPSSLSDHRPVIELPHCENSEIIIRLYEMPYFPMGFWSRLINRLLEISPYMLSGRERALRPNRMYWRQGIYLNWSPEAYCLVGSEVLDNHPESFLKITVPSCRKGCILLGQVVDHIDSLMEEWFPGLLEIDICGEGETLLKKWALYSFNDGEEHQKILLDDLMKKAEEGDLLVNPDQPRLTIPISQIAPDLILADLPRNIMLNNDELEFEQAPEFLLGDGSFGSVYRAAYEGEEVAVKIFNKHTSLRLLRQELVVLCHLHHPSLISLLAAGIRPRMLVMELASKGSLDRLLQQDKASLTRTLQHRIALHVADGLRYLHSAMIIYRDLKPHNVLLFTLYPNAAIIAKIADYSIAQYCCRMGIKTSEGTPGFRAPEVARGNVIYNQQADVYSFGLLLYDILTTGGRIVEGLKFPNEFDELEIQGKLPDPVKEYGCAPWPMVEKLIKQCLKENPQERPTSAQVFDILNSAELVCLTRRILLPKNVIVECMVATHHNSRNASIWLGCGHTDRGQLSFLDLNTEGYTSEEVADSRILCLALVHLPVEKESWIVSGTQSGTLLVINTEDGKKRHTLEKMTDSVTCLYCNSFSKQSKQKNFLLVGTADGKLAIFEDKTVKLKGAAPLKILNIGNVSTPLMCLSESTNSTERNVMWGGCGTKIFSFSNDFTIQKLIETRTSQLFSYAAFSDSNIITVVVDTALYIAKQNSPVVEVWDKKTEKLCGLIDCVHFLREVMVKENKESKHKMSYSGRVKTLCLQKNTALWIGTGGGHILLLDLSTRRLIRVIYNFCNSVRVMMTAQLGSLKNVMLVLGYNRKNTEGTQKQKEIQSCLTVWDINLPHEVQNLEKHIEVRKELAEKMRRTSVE

Compound | Ki [nM]
CCNc1nc(Nc2cn(-c3ccc(S(=O)(=O)C4CC4)cc3)nc2C)ncc1C(F)(F)F [Example 264, N2-[1-(4-Cyclopropane-sulfonyl-phenyl)-3-methyl-1H-pyrazol-4-yl]-N4-ethyl-5-trifluoromethyl-pyrimidine-2,4-diamine] | 3.2
CCNc1nc(Nc2cn(-c3ccc(C#N)cc3)nc2C)ncc1C(F)(F)F [Example 265, 4-[4-(4-Ethylamino-5-trifluoromethyl-pyrimidin-2-ylamino)-3-methyl-pyrazol-1-yl]-benzonitrile] | 4.8
CCNc1nc(Nc2cn(-c3ccc(S(C)(=O)=O)cc3)nc2C)ncc1C(F)(F)F [Example 266, N4-Ethyl-N2-[1-(4-methanesulfonyl-phenyl)-3-methyl-1H-pyrazol-4-yl]-5-trifluoromethyl-pyrimidine-2,4-diamine] | 2.1
CCNc1nc(Nc2cnn(C3CCN(C(=O)C(C)C)CC3)c2C)ncc1C(F)(F)F [Example 267, 1-{4-[4-(4-Ethylamino-5-trifluoromethyl-pyrimidin-2-ylamino)-5-methyl-pyrazol-1-yl]-piperidin-1-yl}-2-methyl-propan-1-one] | 0.8
CCNc1nc(Nc2cn(C3CCN(C(=O)C(C)C)CC3)nc2C)ncc1C(F)(F)F [Example 268, 1-{4-[4-(4-Ethylamino-5-trifluoromethyl-pyrimidin-2-ylamino)-3-methyl-pyrazol-1-yl]-piperidin-1-yl}-2-methyl-propan-1-one] | 7.7
CNc1nc(Nc2cn(-c3ccncc3C)nc2C)ncc1C(F)(F)F [Example 269, N4-Methyl-N2-[3-methyl-1-(3-methyl-pyridin-4-yl)-1H-pyrazol-4-yl]-5-trifluoromethyl-pyrimidine-2,4-diamine] | 9.1
CNc1nc(Nc2cn(C[C@@H](C)OC)nc2C)ncc1C(F)(F)F [Example 270, N2-[1-((R)-2-Methoxy-propyl)-3-methyl-1H-pyrazol-4-yl]-N4-methyl-5-trifluoromethyl-pyrimidine-2,4-diamine] | 17
CNc1nc(Nc2cnn(C3CC(C)OC(C)C3)c2C)ncc1C(F)(F)F (centres unmarked) [Example 272, N2-[1-(2,6-Dimethyl-tetrahydro-pyran-4-yl)-5-methyl-1H-pyrazol-4-yl]-N4-methyl-5-trifluoromethyl-pyrimidine-2,4-diamine] | 5.1
CNc1nc(Nc2cn(C3CCS(=O)(=O)CC3)nc2C)ncc1C(F)(F)F [Example 273, N2-[1-(1,1-Dioxo-hexahydro-1$1%6&- thiopyran-4-yl)-3-methyl-1H-pyrazol-4-yl]-N4-mcthyl-5-trifluoromethyl-pyrimidine-2,4-diamine] | 37
CNc1nc(Nc2cnn([C@H](C)COC)c2C)ncc1C(F)(F)F [Example 274, N2-[1-((R)-2-Methoxy-1-methyl-ethyl)-5-methyl-1H-pyrazol-4-yl]-N4-methyl-5-trifluoromethyl-pyrimidine-2,4-diamine] | 18.5
CNc1nc(Nc2cn([C@@H](C)COC)nc2C)ncc1C(F)(F)F [Example 275, N2-[1-((S)-2-Methoxy-1-methyl-ethyl)-3-methyl-1H-pyrazol-4-yl]-N4-methyl-5-trifluoromethyl-pyrimidine-2,4-diamine] | 8.9
CNc1nc(Nc2cn([C@H]3CCN(C4COC4)C3)nc2C)ncc1C(F)(F)F [Example 276, N4-Methyl-N2-[3-methyl-1-((S)-1-oxetan-3-yl-pyrrolidin-3-yl)-1H-pyrazol-4-yl]-5-trifluoromethyl-pyrimidine-2,4-diamine] | 3.9
CNc1nc(Nc2cnn(C3CN(C(C)C)C3)c2C)ncc1C(F)(F)F [Example 278, N2-[1-(1-Isopropyl-azetidin-3-yl)-5-methyl-1H-pyrazol-4-yl]-N4-methyl-5-trifluoromethyl-pyrimidine-2,4-diamine] | 1.2
CCNc1nc(Nc2cnn(S(=O)(=O)C(C)C)c2C)ncc1C(F)(F)F [Example 279, N4-Ethyl-N2-[5-methyl-1-(propane-2-sulfonyl)-1H-pyrazol-4-yl]-5-trifluoromethyl-pyrimidine-2,4-diamine] | 4.7
CCNc1nc(Nc2cnn(C)c2C2CCC2)ncc1C(F)(F)F [Example 280, N2-(5-Cyclobutyl-1-methyl-1H-pyrazol-4-yl)-N4-ethyl-5-trifluoromethyl-pyrimidine-2,4-diamine] | 3.6
CCNc1nc(Nc2cn(C)nc2C2CCC2)ncc1C(F)(F)F [Example 281, N2-(3-Cyclobutyl-1-methyl-1H-pyrazol-4-yl)-N4-ethyl-5-trifluoromethyl-pyrimidine-2,4-diamine] | 1.3
CCNc1nc(Nc2cn(C3CCN(CCOC)CC3)nc2C)ncc1C(F)(F)F [Example 282, N4-Ethyl-N2-{1-[1-(2-methoxy-ethyl)-piperidin-4-yl]-3-methyl-1H-pyrazol-4-yl}-5-trifluoromethyl-pyrimidine-2,4-diamine] | 5.4
CCNc1nc(Nc2cnn(C3CCN(CCOC)CC3)c2C)ncc1C(F)(F)F [Example 283, N4-Ethyl-N2-{1-[1-(2-methoxy-ethyl)-piperidin-4-yl]-5-methyl-1H-pyrazol-4-yl}-5-trifluoromethyl-pyrimidine-2,4-diamine] | 2

Compound | Ki [nM]
CNc1nc(Nc2cnn(C3CCN(CCF)CC3)c2C)ncc1C(F)(F)F [Example 284, N2-{1-[1-(2-Fluoro-ethyl)-piperidin-4-yl]-5-methyl-1H-pyrazol-4-yl}-N4-methyl-5-trifluoromethyl-pyrimidine-2,4-diamine] | 4.2
CNc1nc(Nc2cn(C3CCN(CCF)CC3)nc2C)ncc1C(F)(F)F [Example 285, N2-{1-[1-(2-Fluoro-ethyl)-piperidin-4-yl]-3-methyl-1H-pyrazol-4-yl}-N4-methyl-5-trifluoromethyl-pyrimidine-2,4-diamine] | 28.3
CCS(=O)(=O)n1ncc(Nc2ncc(C(F)(F)F)c(NC)n2)c1C [Example 287, N2-(1-Ethanesulfonyl-5-methyl-1H-pyrazol-4-yl)-N4-methyl-5-trifluoromethyl-pyrimidine-2,4-diamine] | 7.2
CNc1nc(Nc2cnn(CC(C)(C)N3CCOCC3)c2C)ncc1C(F)(F)F [Example 288, N4-Methyl-N2-[5-methyl-1-(2-methyl-2-morpholin-4-yl-propyl)-1H-pyrazol-4-yl]-5-trifluoromethyl-pyrimidine-2,4-diamine] | 7.7
CNc1nc(Nc2cn(Cc3cccnc3)nc2C)ncc1C(F)(F)F [Example 289, N4-Methyl-N2-(3-methyl-1-pyridin-3-ylmethyl-1H-pyrazol-4-yl)-5-trifluoromethyl-pyrimidine-2,4-diamine] | 25
COc1nc(Nc2cnn(C3CCN(CCF)CC3)c2C)ncc1Cl [Example 292, (5-Chloro-4-methoxy-pyrimidin-2-yl)-{1-[1-(2-fluoro-ethyl)-piperidin-4-yl]-5-methyl-1H-pyrazol-4-yl}-amine] | 4.2
CNc1nc(Nc2cn(Cc3cccc(C)n3)nc2C)ncc1C(F)(F)F [Example 293, N4-Methyl-N2-[3-methyl-1-(6-methyl-pyridin-2-ylmethyl)-1H-pyrazol-4-yl]-5-trifluoromethyl-pyrimidine-2,4-diamine] | 0.6
CCNc1nc(Nc2cn(CCOC)nc2C)ncc1C(F)(F)F [Example 294, N4-Ethyl-N2-[1-(2-methoxy-ethyl)-3-methyl-1H-pyrazol-4-yl]-5-trifluoromethyl-pyrimidine-2,4-diamine] | 1.1
CCNc1nc(Nc2cnn(CCOC)c2C)ncc1C(F)(F)F [Example 295, N4-Ethyl-N2-[1-(2-methoxy-ethyl)-5-methyl-1H-pyrazol-4-yl]-5-trifluoromethyl-pyrimidine-2,4-diamine] | 0.4
CCNc1nc(Nc2cnn(CC(C)(C)O)c2C)ncc1C(F)(F)F [Example 296, 1-[4-(4-Ethylamino-5-trifluoromethyl-pyrimidin-2-ylamino)-5-methyl-pyrazol-1-yl]-2-methyl-propan-2-ol] | 2.3
CCNc1nc(Nc2cn(CC(C)(C)O)nc2C)ncc1C(F)(F)F [Example 297, 1-[4-(4-Ethylamino-5-trifluoromethyl-pyrimidin-2-ylamino)-3-methyl-pyrazol-1-yl]-2-methyl-propan-2-ol] | 2.1
CCNc1nc(Nc2cn(C(C)(C)CN3CCOCC3)nc2C)ncc1C(F)(F)F [Example 298, N2-[1-(1,1-Dimethyl-2-morpholin-4-yl-ethyl)-3-methyl-1H-pyrazol-4-yl]-N4-ethyl-5-trifluoromethyl-pyrimidine-2,4-diamine] | 50.6
CNc1nc(Nc2cn(C(C)(C)CN3CCOCC3)nc2C)ncc1C(F)(F)F [Example 299, N2-[1-(1,1-Dimethyl-2-morpholin-4-yl-ethyl)-3-methyl-1H-pyrazol-4-yl]-N4-methyl-5-trifluoromethyl-pyrimidine-2,4-diamine] | 22.8
Cc1nn(S(C)(=O)=O)cc1Nc1ncc(C(F)(F)F)c(NC2CC2)n1 [Example 300, N4-Cyclopropyl-N2-(1-methanesulfonyl-3-methyl-1H-pyrazol-4-yl)-5-trifluoromethyl-pyrimidine-2,4-diamine] | 0.4
Cc1c(Nc2ncc(C(F)(F)F)c(NC3CC3)n2)cnn1S(C)(=O)=O [Example 301, N4-Cyclopropyl-N2-(1-methanesulfonyl-5-methyl-1H-pyrazol-4-yl)-5-trifluoromethyl-pyrimidine-2,4-diamine] | 2.1
CCNc1nc(Nc2cn(C(C)(C)C(=O)NC)nc2C)ncc1C(F)(F)F [Example 303, 2-[4-(4-Ethylamino-5-trifluoromethyl-pyrimidin-2-ylamino)-3-methyl-pyrazol-1-yl]-N-methyl-isobutyramide] | 1.3
CNc1nc(Nc2cn(Cc3ncccn3)nc2C)ncc1C(F)(F)F [Example 304, N4-Methyl-N2-(3-methyl-1-pyrimidin-2-ylmethyl-1H-pyrazol-4-yl)-5-trifluoromethyl-pyrimidine-2,4-diamine] | 5.1
